Data reported in publication PMC4503722, “Novel Phenotypic Outcomes Identified for a Public Collection of Approved Drugs from a Publicly Accessible Panel of Assays” (PLoS ONE, 2015).
Where two headings read alike, the source gives them in different places.

Assays:
INS-1E cells [1] = test: cells; assay type: cell-based, rat; settings: for 5mMGluc_INS1E SecretionMod IC50/EC50: assay number 8; for EC50: Rattus norvegicus, INS-1E
INS-1E cells [2] = assay type: cell-based, rat; settings: 0.1 mM glucose; for 0.1mMGluc_INS1E SecretionMod Act IC50/EC50: assay number 9
[3] = test system: ECFC/ADSC co-culture cell nuclei number
hFLT3 = molecular target: T1, hFLT3 (Homo sapiens, UniProt P36888); test: Cerep LANCE kinase assay hFLT3 (S1 assay 35); assay type: biochemical; settings: assay number 35
T1 construct: purchased Cerep (LANCE kinase assay platform, contract assay)

hp70S6K1 (RPS6KB1) = molecular target: T2, hp70S6K1 (RPS6KB1) (Homo sapiens, UniProt P23443); test: Cerep LANCE kinase assay hp70S6K1 (S1 assay 31); assay type: biochemical; settings: assay number 31
T2 construct: purchased Cerep (LANCE kinase assay platform, contract assay)

[4] = test system: alkaline phosphatase (ALP) activity in C2C12 cells; assay type: cell-based; settings: assay number 6; concentration response
hJAK2 = molecular target: T3, hJAK2 (Homo sapiens, UniProt O60674); test: Cerep LANCE kinase assay hJAK2 (S1 assay 33); assay type: biochemical; settings: assay number 33
T3 construct: purchased Cerep (LANCE kinase assay platform, contract assay)

hGSK3b = molecular target: T4, hGSK3b (Homo sapiens, UniProt P49841); test: Cerep LANCE kinase assay hGSK3b (S1 assay 34); assay type: biochemical; settings: assay number 34
T4 construct: purchased Cerep (LANCE kinase assay platform, contract assay)

HeLa cells = test: cells; assay type: cell-based
[5] = test system: nuclear β-catenin in C2C12 cells; test: cells; assay type: cell-based
hKDR = molecular target: T5, hKDR (Homo sapiens, UniProt P35968); test: Cerep LANCE kinase assay hKDR (S1 assay 32); assay type: biochemical; settings: assay number 32
T5 construct: purchased Cerep (LANCE kinase assay platform, contract assay)

[6] = test system: endothelial tube formation in co-cultures of ECFCs and ADSCs treated with VEGF; test: cells; assay type: cell-based, human
[7] = test system: HCT116 cells treated with a GSK3β inhibitor; test: cells; assay type: cell-based; settings: Homo sapiens, HCT-116, read-out: HCT-116 (GSK3β) viab. IC50; Table 2; GSK3β inhibitor LY2090314 20 nM; 72 h, Cell TiterGlo; 20 coded
NCI-H716 cells = test: cells; assay type: cell-based, Human; settings: Homo sapiens, NCI-H716; read-out: GLP1 sec. EC50
SW480 = test: cells; assay type: cell-based; settings: Homo sapiens
HCT116 = test: cells; assay type: cell-based; settings: Homo sapiens, HCT-116, 72 h, read-out: HCT-116 viab. IC50, Table 2; basal; 72 h, Cell TiterGlo, non-adherent; 20 coded
DLD-1 = test: cells; assay type: cell-based; settings: Homo sapiens, DLD-1, 72 h, Table 2; 72 h, Cell TiterGlo, non-adherent; 20 coded; read-out: DLD-1 viab. IC50
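For 5mMGluc INS1E SecretionMod IC50/EC50 in this document: secreted insulin quantified by homogeneous immunoassay.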

T4 sequence (P49841 whole entry): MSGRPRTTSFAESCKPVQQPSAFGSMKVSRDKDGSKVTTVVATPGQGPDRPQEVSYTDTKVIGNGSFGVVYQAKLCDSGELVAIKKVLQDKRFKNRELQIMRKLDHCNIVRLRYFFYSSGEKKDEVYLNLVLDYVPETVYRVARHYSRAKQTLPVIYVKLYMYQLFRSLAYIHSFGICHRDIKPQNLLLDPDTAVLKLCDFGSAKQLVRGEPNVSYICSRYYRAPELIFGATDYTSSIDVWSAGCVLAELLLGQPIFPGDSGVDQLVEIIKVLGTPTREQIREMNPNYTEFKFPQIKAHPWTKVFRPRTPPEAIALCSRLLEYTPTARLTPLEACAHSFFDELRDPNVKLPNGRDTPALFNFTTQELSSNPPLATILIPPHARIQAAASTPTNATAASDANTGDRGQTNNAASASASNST
T5 sequence (P35968 20-1356): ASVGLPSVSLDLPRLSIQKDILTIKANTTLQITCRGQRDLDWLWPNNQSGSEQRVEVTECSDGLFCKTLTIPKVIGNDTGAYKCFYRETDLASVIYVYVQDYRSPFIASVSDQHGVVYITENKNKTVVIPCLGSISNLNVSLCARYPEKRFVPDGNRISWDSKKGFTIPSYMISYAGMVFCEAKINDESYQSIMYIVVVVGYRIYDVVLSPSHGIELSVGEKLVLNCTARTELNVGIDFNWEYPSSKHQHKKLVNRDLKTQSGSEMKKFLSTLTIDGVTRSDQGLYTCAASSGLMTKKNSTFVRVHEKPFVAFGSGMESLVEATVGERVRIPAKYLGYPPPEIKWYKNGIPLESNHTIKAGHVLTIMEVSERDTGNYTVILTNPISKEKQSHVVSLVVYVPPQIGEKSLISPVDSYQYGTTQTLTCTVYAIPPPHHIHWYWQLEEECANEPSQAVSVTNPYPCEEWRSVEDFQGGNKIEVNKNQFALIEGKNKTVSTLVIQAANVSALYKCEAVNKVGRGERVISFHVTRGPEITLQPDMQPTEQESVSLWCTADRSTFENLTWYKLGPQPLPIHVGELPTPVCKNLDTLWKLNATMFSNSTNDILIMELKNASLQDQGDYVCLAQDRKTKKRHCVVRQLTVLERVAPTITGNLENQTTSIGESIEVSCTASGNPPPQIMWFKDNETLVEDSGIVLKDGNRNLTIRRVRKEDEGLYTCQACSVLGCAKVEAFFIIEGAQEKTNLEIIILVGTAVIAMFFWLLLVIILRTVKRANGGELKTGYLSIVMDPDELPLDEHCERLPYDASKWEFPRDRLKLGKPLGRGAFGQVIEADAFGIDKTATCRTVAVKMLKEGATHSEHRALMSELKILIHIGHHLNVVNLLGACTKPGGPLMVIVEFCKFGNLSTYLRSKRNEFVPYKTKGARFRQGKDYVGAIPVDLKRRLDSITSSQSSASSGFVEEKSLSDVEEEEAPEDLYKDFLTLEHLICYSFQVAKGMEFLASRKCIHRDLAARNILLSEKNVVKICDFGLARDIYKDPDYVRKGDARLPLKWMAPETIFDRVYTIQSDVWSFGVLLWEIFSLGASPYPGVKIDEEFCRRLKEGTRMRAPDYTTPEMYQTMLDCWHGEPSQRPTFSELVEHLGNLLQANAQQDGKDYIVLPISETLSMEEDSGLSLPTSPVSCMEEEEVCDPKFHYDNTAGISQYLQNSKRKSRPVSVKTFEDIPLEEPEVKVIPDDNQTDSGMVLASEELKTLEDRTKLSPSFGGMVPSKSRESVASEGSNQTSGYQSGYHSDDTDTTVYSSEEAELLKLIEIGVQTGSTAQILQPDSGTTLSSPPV
T3 sequence (O60674 whole entry): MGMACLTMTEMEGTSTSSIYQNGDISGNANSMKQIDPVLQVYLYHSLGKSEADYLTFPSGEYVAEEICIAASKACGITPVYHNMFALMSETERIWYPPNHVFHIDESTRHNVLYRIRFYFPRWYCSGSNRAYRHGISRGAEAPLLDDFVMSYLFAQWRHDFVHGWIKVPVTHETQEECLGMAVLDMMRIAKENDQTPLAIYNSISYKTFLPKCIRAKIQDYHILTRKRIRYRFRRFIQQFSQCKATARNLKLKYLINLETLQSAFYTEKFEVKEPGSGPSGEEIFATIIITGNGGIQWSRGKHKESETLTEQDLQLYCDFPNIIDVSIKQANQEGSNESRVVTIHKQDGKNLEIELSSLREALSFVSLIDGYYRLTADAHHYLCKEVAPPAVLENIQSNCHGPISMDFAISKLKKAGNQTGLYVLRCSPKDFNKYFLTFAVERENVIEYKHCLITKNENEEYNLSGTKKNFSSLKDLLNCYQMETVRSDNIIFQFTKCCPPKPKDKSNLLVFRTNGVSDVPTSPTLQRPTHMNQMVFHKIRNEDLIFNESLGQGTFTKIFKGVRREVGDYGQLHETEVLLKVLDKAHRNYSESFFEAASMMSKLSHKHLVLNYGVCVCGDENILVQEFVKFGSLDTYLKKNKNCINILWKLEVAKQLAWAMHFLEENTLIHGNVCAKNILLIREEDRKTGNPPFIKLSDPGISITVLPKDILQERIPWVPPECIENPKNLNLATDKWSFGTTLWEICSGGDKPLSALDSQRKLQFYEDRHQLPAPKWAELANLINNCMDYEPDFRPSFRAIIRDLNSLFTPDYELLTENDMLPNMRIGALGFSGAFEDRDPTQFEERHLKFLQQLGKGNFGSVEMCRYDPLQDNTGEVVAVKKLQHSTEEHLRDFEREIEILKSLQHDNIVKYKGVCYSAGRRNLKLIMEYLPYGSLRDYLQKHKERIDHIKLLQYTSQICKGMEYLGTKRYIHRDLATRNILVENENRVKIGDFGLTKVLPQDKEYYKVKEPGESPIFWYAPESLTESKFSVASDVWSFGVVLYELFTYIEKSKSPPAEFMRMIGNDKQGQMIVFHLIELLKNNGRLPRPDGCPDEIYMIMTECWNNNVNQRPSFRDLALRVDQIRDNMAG
T2 sequence (P23443 whole entry): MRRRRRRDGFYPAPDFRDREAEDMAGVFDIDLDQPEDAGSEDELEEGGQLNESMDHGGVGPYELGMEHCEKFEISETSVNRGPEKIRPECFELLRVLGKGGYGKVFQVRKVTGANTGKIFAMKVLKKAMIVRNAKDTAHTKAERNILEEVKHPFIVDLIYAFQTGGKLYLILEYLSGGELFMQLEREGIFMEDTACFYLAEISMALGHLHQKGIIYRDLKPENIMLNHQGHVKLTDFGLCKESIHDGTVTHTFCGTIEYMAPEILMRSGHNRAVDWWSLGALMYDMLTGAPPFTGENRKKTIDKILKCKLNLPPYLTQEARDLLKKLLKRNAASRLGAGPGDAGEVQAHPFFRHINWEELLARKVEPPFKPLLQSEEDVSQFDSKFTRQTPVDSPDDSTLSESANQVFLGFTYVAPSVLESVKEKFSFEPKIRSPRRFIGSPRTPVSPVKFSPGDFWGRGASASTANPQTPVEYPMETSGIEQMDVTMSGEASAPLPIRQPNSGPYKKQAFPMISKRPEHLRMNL
T1 sequence (P36888 27-993): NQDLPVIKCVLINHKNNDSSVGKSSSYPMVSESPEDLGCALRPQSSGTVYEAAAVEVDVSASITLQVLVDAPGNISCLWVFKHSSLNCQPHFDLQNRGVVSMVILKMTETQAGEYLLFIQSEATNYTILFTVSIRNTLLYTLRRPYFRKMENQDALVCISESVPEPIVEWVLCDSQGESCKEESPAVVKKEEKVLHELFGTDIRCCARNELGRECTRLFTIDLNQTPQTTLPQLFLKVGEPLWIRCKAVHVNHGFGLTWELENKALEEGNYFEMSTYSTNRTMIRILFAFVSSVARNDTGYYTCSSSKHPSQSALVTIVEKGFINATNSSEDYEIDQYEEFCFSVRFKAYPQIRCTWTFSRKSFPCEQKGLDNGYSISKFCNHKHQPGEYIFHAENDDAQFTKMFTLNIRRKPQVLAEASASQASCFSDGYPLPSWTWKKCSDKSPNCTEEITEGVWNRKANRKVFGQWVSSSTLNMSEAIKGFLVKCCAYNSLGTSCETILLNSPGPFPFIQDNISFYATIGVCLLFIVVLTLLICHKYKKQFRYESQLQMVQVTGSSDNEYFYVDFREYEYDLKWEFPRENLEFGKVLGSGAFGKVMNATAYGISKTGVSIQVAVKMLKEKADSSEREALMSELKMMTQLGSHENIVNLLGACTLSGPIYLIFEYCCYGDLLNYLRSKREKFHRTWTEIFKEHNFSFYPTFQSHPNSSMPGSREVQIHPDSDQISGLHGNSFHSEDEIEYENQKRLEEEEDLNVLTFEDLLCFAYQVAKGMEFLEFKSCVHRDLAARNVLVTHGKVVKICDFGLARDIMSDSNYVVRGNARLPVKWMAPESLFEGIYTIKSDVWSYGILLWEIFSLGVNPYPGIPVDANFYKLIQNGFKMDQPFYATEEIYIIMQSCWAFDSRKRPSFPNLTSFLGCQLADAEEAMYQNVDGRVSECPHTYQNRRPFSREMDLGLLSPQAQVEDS

SMILES: Nc1c2c(nc3ccccc13)CCCC2 [NCGC00015054-12]
- 5mMGluc_INS1E SecretionMod IC50/EC50 (INS-1E cells [1]; 5 mM glucose): 17.6112 µM
- 0.1mMGluc_INS1E SecretionMod Act IC50/EC50 (INS-1E cells [2]): > 33.33 µM

SMILES: Cc1cc2c(OCC(CNC(C)(C)C)OC(=O)c3ccccc3)cccc2[nH]1 (stereo not shown) [NCGC00263654-01]
- 5mMGluc_INS1E SecretionMod IC50/EC50 (INS-1E cells [1]; 5 mM glucose): 14.6026 µM
- 0.1mMGluc_INS1E SecretionMod Act IC50/EC50 (INS-1E cells [2]): > 33.33 µM

SMILES: CSc1ccc2c(c1)C(N1CCN(C)CC1)Cc1ccccc1S2 (stereo not shown) [NCGC00024665-10]
- VEGF_ADSC\ECFC Angio Hoechst NucArea IC50/EC50 [3]: > 10 µM
- hFLT3 LANCE IC50/EC50 (hFLT3): > 20 µM
- hp70S6K1 LANCE IC50/EC50 (hp70S6K1 (RPS6KB1)): > 20 µM
- WntCondMedia_Alk Phos C2C12 IC50/EC50 [4]: > 20 µM
- 5mMGluc_INS1E SecretionMod IC50/EC50 (INS-1E cells [1]; 5 mM glucose): 2.944 µM
- hJAK2 LANCE IC50/EC50 (hJAK2): > 20 µM
- hGSK3b LANCE IC50/EC50 (hGSK3b): > 20 µM
- Hela CellCycMod PI 2N IC50/EC50 (HeLa cells; assay number 14, 2N): > 10 µM
- Hela CellCycMod PI 4N IC50/EC50 (HeLa cells; assay number 16, 4N): > 10 µM
- Hela CellCycMod PI MI IC50/EC50 (HeLa cells; assay number 17, MI): > 10 µM
- Hela CellCycMod PI Cell Number IC50/EC50 (HeLa cells; assay number 18, cell number): > 10 µM
- 0.1mMGluc_INS1E SecretionMod Act IC50/EC50 (INS-1E cells [2]): > 33.33 µM
- WntCondMedia_bCatenin C2C12 IC50/EC50 ([5]; assay number 5, concentration response): > 20 µM
- hKDR LANCE IC50/EC50 (hKDR): > 20 µM
- VEGF_ADSC\ECFC Angio CD31 TubeArea IC50/EC50 [6]: > 10 µM

SMILES: CN(C)CCOC(c1ccc(Cl)cc1)c1ccccn1 (stereo not shown) [NCGC00166141-06]
- 5mMGluc_INS1E SecretionMod IC50/EC50 (INS-1E cells [1]; 5 mM glucose): 21.3759 µM
- 0.1mMGluc_INS1E SecretionMod Act IC50/EC50 (INS-1E cells [2]): > 33.33 µM

SMILES: Oc1ccc(CCNCCCCCCNCCc2ccccc2)cc1O [NCGC00184998-02]
- 5mMGluc_INS1E SecretionMod IC50/EC50 (INS-1E cells [1]; 5 mM glucose): > 33.33 µM
- 0.1mMGluc_INS1E SecretionMod Act IC50/EC50 (INS-1E cells [2]): > 33.33 µM

SMILES: COc1ccc(Cl)cc1C(=O)NCCc1ccc(S(=O)(=O)NC(=O)NC2CCCCC2)cc1 [glibenclamide, reference compound]
- IC50 [7]: > 20 µM
- EC50 (NCI-H716 cells): > 10 µM
- IC50 (SW480; SW480, 72 h, Table 2, 72 h, Cell TiterGlo, non-adherent, 20 coded, read-out: SW480 viab. IC50): 2.9 µM
- IC50 (SW480; SW480, basal, SW480, read-out: Basal_Viability ATP SW480): 2.92 µM
- EC50 (INS-1E cells [1]; read-out: Ins. sec. EC50): 0.002 µM
- EC50 (INS-1E cells [1]; read-out: Insulin Secretion): 0.00247 µM
- EC50 (INS-1E cells [1]; 5 mM glucose, read-out: insulin secretion EC50): 0.0025 µM
- IC50 (HCT116): > 20 µM
- insulin secretion at low glucose (in words) (INS-1E cells [2]; INS-1E): stimulated insulin secretion at low glucose concentrations
- EC50 ([5]; Mus musculus, C2C12, Table 2, C2C12, […], 20 / 20.1 coded, read-out: Wnt pot. EC50): > 10 µM
- IC50 (DLD-1): > 20 µM
- IC50 ([6]; Homo sapiens, Table 2, primary assay tube area, 20 = no response in concentration-response, 20.1 = inactive in single concentration testing, read-out: Anti-Angio IC50): > 10 µM

SMILES: C#CCOC(C(=O)OCCN(C)C)(c1ccccc1)c1ccccc1 [NCGC00164558-02]
- 5mMGluc_INS1E SecretionMod IC50/EC50 (INS-1E cells [1]; 5 mM glucose): 9.257 µM
- 0.1mMGluc_INS1E SecretionMod Act IC50/EC50 (INS-1E cells [2]): 9.666 µM

SMILES: CCOc1cc(CC(=O)N[C@@H](CC(C)C)c2ccccc2N2CCCCC2)ccc1C(=O)O [NCGC00016978-04]
- 5mMGluc_INS1E SecretionMod IC50/EC50 (INS-1E cells [1]; 5 mM glucose): 0.02704 µM
- 0.1mMGluc_INS1E SecretionMod Act IC50/EC50 (INS-1E cells [2]): 0.1358 µM

SMILES: CN1CCc2cc(Cl)c(O)cc2[C@H]2c3ccccc3CC[C@@H]21 [NCGC00092362-02]
- 5mMGluc_INS1E SecretionMod IC50/EC50 (INS-1E cells [1]; 5 mM glucose): 15.3649 µM
- 0.1mMGluc_INS1E SecretionMod Act IC50/EC50 (INS-1E cells [2]): > 33.33 µM

SMILES: CN(C)CCC[C@@]1(c2ccc(F)cc2)OCc2cc(C#N)ccc21.O=C(O)C(=O)O [NCGC00178555-02]
- 5mMGluc_INS1E SecretionMod IC50/EC50 (INS-1E cells [1]; 5 mM glucose): 5.447 µM
- 0.1mMGluc_INS1E SecretionMod Act IC50/EC50 (INS-1E cells [2]): > 33.33 µM

SMILES: Cl.Nc1c2c(nc3c1CCC3)CCCC2.O [NCGC00263455-01]
- 5mMGluc_INS1E SecretionMod IC50/EC50 (INS-1E cells [1]; 5 mM glucose): 11.7012 µM
- 0.1mMGluc_INS1E SecretionMod Act IC50/EC50 (INS-1E cells [2]): > 33.33 µM

SMILES: c1cc(CN2CCCCC2)cc(OCCCNc2nc3ccccc3s2)c1 [NCGC00015957-06]
- 5mMGluc_INS1E SecretionMod IC50/EC50 (INS-1E cells [1]; 5 mM glucose): > 11.11 µM
- 0.1mMGluc_INS1E SecretionMod Act IC50/EC50 (INS-1E cells [2]): > 33.33 µM

SMILES: CCN(CC)CCNC(C(=O)OCCC(C)C)c1ccccc1 (stereo not shown) [NCGC00164526-02]
- 5mMGluc_INS1E SecretionMod IC50/EC50 (INS-1E cells [1]; 5 mM glucose): 24.7717 µM
- 0.1mMGluc_INS1E SecretionMod Act IC50/EC50 (INS-1E cells [2]): > 33.33 µM
